Results published in ChEMBL document CHEMBL4229332, “Novel multi-target azinesulfonamides of cyclic amine derivatives as potential antipsychotics with pro-social and pro-cognitive effects” (Eur J Med Chem, 2018).

Legend:
Cavia porcellus [1] = assay: Cardiotoxicity in guinea pig assessed as effect on QTc interval time at 5 mg/kg, ip measured after 10 mins by ECG analysis (reference value: […] to […] milliseconds); type: toxicity, organism-based; conditions: in vivo
[2] = Drug level in Wistar rat brain at 3 mg/kg, ip measured after 30 mins by LC-MS/MS analysis; type: ADME, organism-based; conditions: read-out: Drug uptake
Cavia porcellus [3] = assay: Cardiotoxicity in guinea pig assessed as effect on PR interval time at 5 mg/kg, ip measured after 10 mins by ECG analysis (reference value: 58.8 to 63.8 milliseconds); type: toxicity, organism-based; conditions: in vivo
[4] = Drug level in Wistar rat brain at 3 mg/kg, ip measured after 60 mins by LC-MS/MS analysis; type: ADME, organism-based; conditions: read-out: Drug uptake
Cavia porcellus [5] = assay: Cardiotoxicity in guinea pig assessed as effect on RR interval time at 5 mg/kg, ip measured after 10 mins by ECG analysis (reference value: 208.4 to 238.4 milliseconds); type: toxicity, organism-based; conditions: in vivo
Cavia porcellus [6] = assay: Cardiotoxicity in guinea pig assessed as effect on RR interval time at 5 mg/kg, ip measured after 40 mins by ECG analysis (reference value: 208.4 to 238.4 milliseconds); type: toxicity, organism-based; conditions: in vivo
Cavia porcellus [7] = assay: Cardiotoxicity in guinea pig assessed as effect on QRS interval time at 5 mg/kg, ip measured after 30 mins by ECG analysis (reference value: 26.2 to 31.6 milliseconds); type: toxicity, organism-based; conditions: in vivo, 0.5 h
Cavia porcellus [8] = assay: Cardiotoxicity in guinea pig assessed as effect on PR interval time at 5 mg/kg, ip measured after 30 mins by ECG analysis (reference value: 58.8 to 63.8 milliseconds); type: toxicity, organism-based; conditions: in vivo, 0.5 h
[9] = biological target: Voltage-gated inwardly rectifying potassium channel KCNH2 (Homo sapiens, UniProt Q12809); assay: Inhibition of human ERG expressed in CHOK1 cells at 10 to 50 uM by whole-cell patch clamp method; type: cell-based
[10] = biological target: 5-hydroxytryptamine receptor 2A (Homo sapiens, UniProt P28223); assay: biochemical; type: cell-based, CHO-K1
Cavia porcellus [11] = assay: Cardiotoxicity in guinea pig assessed as effect on QRS interval time at 5 mg/kg, ip measured after 40 mins by ECG analysis (reference value: 26.2 to 31.6 milliseconds); type: toxicity, organism-based; conditions: in vivo
Cavia porcellus [12] = assay: Cardiotoxicity in guinea pig assessed as effect on PR interval time at 5 mg/kg, ip measured after 40 mins by ECG analysis (reference value: 58.8 to 63.8 milliseconds); type: toxicity, organism-based; conditions: in vivo
Cavia porcellus [13] = assay: Cardiotoxicity in guinea pig assessed as effect on frequence of heart rate at 5 mg/kg, ip measured after 30 mins by ECG analysis (reference value: 262 to 296 /min); type: toxicity, organism-based; conditions: in vivo, 0.5 h
Cavia porcellus [14] = assay: Cardiotoxicity in guinea pig assessed as effect on QRS interval time at 5 mg/kg, ip measured after 70 mins by ECG analysis (reference value: 26.2 to 31.6 milliseconds); type: toxicity, organism-based; conditions: in vivo
Cavia porcellus [15] = assay: Cardiotoxicity in guinea pig assessed as effect on QT interval time at 5 mg/kg, ip measured after 70 mins by ECG analysis (reference value: 127.6 to 131.2 milliseconds); type: toxicity, organism-based; conditions: in vivo
[16] = biological target: 5-hydroxytryptamine receptor 7 (Homo sapiens, UniProt P34969); assay: biochemical
Description: Displacement of [3H]-5-CT from human 5-HT7R expressed in HEK293 cell membranes after 1 hr at 37 degC by microbeta counting method

Cavia porcellus [17] = assay: Cardiotoxicity in guinea pig assessed as effect on frequence of heart rate at 5 mg/kg, ip measured after 70 mins by ECG analysis (reference value: 262 to 296 /min); type: toxicity, organism-based; conditions: in vivo
Cavia porcellus [18] = assay: Cardiotoxicity in guinea pig assessed as effect on PR interval time at 5 mg/kg, ip measured after 20 mins by ECG analysis (reference value: 58.8 to 63.8 milliseconds); type: toxicity, organism-based; conditions: in vivo
Cytochrome P450 3A4 = Cytochrome P450 3A4 (Homo sapiens, UniProt P08684); assay: Inhibition of human supersome CYP3A4 using testosterone as substrate assessed as testosterone 6beta-hydroxylation after 30 mins by HPLC-UV detection; type: ADME
Cavia porcellus [19] = assay: Cardiotoxicity in guinea pig assessed as effect on QT interval time at 5 mg/kg, ip measured after 30 mins by ECG analysis (reference value: 127.6 to 131.2 milliseconds); type: toxicity, organism-based; conditions: in vivo, 0.5 h
[20] = Ratio of drug level in brain to plasma in Wistar rat at 3 mg/kg, ip measured after 30 mins by LC-MS/MS analysis; type: ADME, organism-based; conditions: read-out: BPR
Cavia porcellus [21] = assay: Cardiotoxicity in guinea pig assessed as effect on RR interval time at 5 mg/kg, ip measured after 20 mins by ECG analysis (reference value: 208.4 to 238.4 milliseconds); type: toxicity, organism-based; conditions: in vivo
[22] = Ratio of drug level in brain to plasma in Wistar rat at 3 mg/kg, ip measured after 60 mins by LC-MS/MS analysis; type: ADME, organism-based; conditions: read-out: BPR
Cytochrome P450 2C19 = Cytochrome P450 2C19 (Homo sapiens, UniProt P33261); assay: Inhibition of human supersome CYP2C19 using perazine as substrate assessed as perazine N-demethylation after 30 mins by HPLC-UV detection; type: ADME
Rattus norvegicus = species: Rattus norvegicus; assay: animal or person; conditions: Sprague-Dawley, ip, read-out: MED
Description: Reversal of ketamine-induced working social withdrawal in ip dosed Sprague-Dawley rat pretreated for 60 mins followed by ketamine administration

Cavia porcellus [23] = assay: Cardiotoxicity in guinea pig assessed as effect on PR interval time at 5 mg/kg, ip measured after 80 mins by ECG analysis (reference value: 58.8 to 63.8 milliseconds); type: toxicity, organism-based; conditions: in vivo
[24] = Drug level in Wistar rat brain at 3 mg/kg, ip measured after 15 mins by LC-MS/MS analysis; type: ADME, organism-based; conditions: read-out: Drug uptake
Cavia porcellus [25] = assay: Cardiotoxicity in guinea pig assessed as effect on QTc interval time at 5 mg/kg, ip measured after 50 mins by ECG analysis (reference value: […] to […] milliseconds); type: toxicity, organism-based; conditions: in vivo
Cavia porcellus [26] = assay: Cardiotoxicity in guinea pig assessed as effect on RR interval time at 5 mg/kg, ip measured after 60 mins by ECG analysis (reference value: 208.4 to 238.4 milliseconds); type: toxicity, organism-based; conditions: in vivo, 1 h
Cavia porcellus [27] = assay: Cardiotoxicity in guinea pig assessed as effect on QRS interval time at 5 mg/kg, ip measured after 50 mins by ECG analysis (reference value: 26.2 to 31.6 milliseconds); type: toxicity, organism-based; conditions: in vivo
Cavia porcellus [28] = assay: Cardiotoxicity in guinea pig assessed as effect on frequence of heart rate at 5 mg/kg, ip measured after 40 mins by ECG analysis (reference value: 262 to 296 /min); type: toxicity, organism-based; conditions: in vivo
[29] = Drug level in Wistar rat plasma at 3 mg/kg, ip measured after 60 mins by LC-MS/MS analysis; type: ADME, organism-based
Cavia porcellus [30] = assay: Cardiotoxicity in guinea pig assessed as effect on QRS interval time at 5 mg/kg, ip measured after 20 mins by ECG analysis (reference value: 26.2 to 31.6 milliseconds); type: toxicity, organism-based; conditions: in vivo
Cavia porcellus [31] = assay: Cardiotoxicity in guinea pig assessed as effect on QT interval time at 5 mg/kg, ip measured after 80 mins by ECG analysis (reference value: 127.6 to 131.2 milliseconds); type: toxicity, organism-based; conditions: in vivo
Cavia porcellus [32] = assay: Cardiotoxicity in guinea pig assessed as effect on RR interval time at 5 mg/kg, ip measured after 50 mins by ECG analysis (reference value: 208.4 to 238.4 milliseconds); type: toxicity, organism-based; conditions: in vivo

Sequence of 5-hydroxytryptamine receptor 7 (P34969 whole entry): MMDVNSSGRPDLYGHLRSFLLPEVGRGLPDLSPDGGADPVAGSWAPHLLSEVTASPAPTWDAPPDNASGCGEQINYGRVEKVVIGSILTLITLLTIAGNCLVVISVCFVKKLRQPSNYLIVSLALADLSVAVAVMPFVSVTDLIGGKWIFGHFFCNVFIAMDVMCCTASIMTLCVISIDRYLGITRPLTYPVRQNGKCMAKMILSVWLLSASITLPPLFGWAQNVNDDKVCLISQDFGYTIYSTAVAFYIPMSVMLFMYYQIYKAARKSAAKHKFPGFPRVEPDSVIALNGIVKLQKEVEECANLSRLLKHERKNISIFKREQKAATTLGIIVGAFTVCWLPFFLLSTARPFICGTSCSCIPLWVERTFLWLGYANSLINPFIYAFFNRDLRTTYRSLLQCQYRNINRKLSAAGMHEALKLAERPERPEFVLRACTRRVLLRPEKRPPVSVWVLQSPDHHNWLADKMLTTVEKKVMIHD
Sequence of Cytochrome P450 3A4 (P08684 whole entry): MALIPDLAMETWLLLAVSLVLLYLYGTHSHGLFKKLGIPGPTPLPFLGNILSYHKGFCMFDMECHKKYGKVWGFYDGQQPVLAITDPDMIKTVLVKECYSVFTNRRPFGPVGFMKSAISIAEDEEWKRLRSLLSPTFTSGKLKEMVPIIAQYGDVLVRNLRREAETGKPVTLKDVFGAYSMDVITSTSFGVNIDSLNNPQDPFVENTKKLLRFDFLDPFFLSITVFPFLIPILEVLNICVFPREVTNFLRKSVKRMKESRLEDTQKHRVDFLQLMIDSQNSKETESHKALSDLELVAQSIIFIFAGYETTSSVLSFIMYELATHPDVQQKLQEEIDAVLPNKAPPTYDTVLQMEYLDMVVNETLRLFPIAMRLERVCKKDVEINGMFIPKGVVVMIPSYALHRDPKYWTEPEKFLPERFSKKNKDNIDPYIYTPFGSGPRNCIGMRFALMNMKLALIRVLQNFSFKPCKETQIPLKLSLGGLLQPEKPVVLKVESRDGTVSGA
Sequence of 5-hydroxytryptamine receptor 2A (P28223 whole entry): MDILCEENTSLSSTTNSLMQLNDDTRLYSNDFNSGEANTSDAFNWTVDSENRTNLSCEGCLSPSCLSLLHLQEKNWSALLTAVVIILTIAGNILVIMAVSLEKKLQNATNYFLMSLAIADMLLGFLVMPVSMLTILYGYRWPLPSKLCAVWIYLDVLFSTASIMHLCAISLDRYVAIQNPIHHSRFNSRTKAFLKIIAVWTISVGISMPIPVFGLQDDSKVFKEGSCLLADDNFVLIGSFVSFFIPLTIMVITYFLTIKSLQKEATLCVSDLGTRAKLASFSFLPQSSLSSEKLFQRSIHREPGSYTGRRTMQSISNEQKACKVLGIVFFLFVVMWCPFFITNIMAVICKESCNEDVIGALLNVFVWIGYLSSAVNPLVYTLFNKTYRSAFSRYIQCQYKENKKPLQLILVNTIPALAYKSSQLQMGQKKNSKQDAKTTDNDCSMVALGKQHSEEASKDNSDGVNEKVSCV
Sequence of Cytochrome P450 2C19 (P33261 whole entry): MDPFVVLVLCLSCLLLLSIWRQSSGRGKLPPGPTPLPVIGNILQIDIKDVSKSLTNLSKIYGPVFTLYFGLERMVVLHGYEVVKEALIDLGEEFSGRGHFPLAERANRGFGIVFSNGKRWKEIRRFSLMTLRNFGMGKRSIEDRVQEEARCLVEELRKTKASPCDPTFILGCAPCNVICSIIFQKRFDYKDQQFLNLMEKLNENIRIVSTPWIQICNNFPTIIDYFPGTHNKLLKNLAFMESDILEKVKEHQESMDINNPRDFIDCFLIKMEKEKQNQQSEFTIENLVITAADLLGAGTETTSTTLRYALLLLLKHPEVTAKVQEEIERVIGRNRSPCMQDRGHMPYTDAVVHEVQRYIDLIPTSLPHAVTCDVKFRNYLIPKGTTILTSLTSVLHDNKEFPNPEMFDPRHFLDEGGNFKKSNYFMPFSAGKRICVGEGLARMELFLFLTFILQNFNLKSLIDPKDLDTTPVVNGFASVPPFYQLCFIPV
Sequence of Voltage-gated inwardly rectifying potassium channel KCNH2 (Q12809 whole entry): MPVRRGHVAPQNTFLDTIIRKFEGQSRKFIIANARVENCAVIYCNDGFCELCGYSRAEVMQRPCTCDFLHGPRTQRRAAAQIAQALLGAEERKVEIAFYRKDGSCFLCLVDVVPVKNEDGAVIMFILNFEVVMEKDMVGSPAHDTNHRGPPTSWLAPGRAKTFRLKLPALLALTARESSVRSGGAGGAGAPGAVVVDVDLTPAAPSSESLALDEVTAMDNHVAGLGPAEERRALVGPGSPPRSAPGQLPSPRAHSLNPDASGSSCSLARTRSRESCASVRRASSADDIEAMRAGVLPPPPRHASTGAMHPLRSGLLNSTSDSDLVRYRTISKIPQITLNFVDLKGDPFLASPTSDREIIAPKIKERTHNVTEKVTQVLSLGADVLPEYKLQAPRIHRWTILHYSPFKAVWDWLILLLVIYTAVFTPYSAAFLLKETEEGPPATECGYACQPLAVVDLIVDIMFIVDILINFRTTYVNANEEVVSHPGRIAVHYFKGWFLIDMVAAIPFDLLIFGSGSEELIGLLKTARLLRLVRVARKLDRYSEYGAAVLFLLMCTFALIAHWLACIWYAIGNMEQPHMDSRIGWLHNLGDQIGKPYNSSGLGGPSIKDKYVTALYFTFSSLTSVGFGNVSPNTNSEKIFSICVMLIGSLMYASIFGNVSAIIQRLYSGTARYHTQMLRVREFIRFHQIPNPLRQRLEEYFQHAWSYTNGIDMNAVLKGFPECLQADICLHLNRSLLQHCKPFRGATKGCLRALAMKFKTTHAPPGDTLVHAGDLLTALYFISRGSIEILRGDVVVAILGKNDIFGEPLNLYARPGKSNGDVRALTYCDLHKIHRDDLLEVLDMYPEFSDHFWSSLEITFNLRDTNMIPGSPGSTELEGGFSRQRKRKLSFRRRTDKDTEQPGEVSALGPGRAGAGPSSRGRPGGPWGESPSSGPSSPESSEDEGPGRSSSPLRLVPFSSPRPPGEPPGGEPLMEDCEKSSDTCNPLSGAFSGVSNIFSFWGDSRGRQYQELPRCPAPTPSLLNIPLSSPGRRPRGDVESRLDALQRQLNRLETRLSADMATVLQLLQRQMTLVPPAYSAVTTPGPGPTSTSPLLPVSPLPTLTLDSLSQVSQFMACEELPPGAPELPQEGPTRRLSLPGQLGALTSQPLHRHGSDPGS

## O=S(=O)(c1cncc2ccccc12)N1CCC[C@H]1CCN1CCN(c2nsc3ccccc23)CC1
Cavia porcellus [1]
  Time: 272.2 ms
[2]
  concentration at 0.5 h: 0.177 µM
Cavia porcellus [3]
  Time: 59 ms
[4]
  concentration at 1 h: 0.0494 µM
Cavia porcellus [5]
  Time: 202 ms
Cavia porcellus [6]
  Time: 211 ms
Cavia porcellus [7]
  Time: 26.8 ms
Cavia porcellus [8]
  Time: 58.8 ms
[9]
  inhibition (INH): Active
[10]
  Ki: 0.013 µM
Cavia porcellus [11]
  Time: 27.6 ms
Cavia porcellus [12]
  Time: 61 ms
Cavia porcellus [13]
  Activity: 287 min⁻¹
Cavia porcellus [14]
  Time: 27.8 ms
Cavia porcellus [15]
  Time: 125.4 ms
[16]
  Ki: 0.009 µM
Cavia porcellus [17]
  Activity: 287 min⁻¹
Cavia porcellus [18]
  Time: 59.6 ms
Cytochrome P450 3A4
  IC50: 23 µM
Cavia porcellus [19]
  Time: 128.8 ms
[20]
  Kp at 0.5 h: 1.33
Cavia porcellus [21]
  Time: 206 ms
[22]
  Kp at 1 h: 0.96
Cytochrome P450 2C19
  IC50: 50 µM
Rattus norvegicus
  minimal effective dose: 3 mg/kg
Cavia porcellus [23]
  Time: 61.8 ms
[24]
  concentration at 0.25 h: 0.153 µM
Cavia porcellus [25]
  Time: 266 ms
Cavia porcellus [26]
  Time: 210.4 ms
Cavia porcellus [27]
  Time: 27 ms
Cavia porcellus [28]
  Activity: 288 min⁻¹
[29]
  concentration at 1 h: 0.0502 µM
Cavia porcellus [30]
  Time: 26 ms
Cavia porcellus [31]
  Time: 125.6 ms
Cavia porcellus [32]
  Time: 210.6 ms

## O=S(=O)(c1cncc2ccccc12)N1CCC[C@H]1CCN1CCN(c2cccc3sccc23)CC1
Cavia porcellus [1]
  Time: 267 ms
[2]
  concentration at 0.5 h: 0.245 µM
Cavia porcellus [3]
  Time: 62.8 ms
[4]
  concentration at 1 h: 0.0893 µM
Cavia porcellus [5]
  Time: 236.6 ms
Cavia porcellus [6]
  Time: 227.2 ms
Cavia porcellus [7]
  Time: 32.4 ms
Cavia porcellus [8]
  Time: 62.8 ms
[9]
  inhibition (INH): Not Active
[10]
  Ki: 0.009 µM
Cavia porcellus [11]
  Time: 31.2 ms
Cavia porcellus [12]
  Time: 63.4 ms
Cavia porcellus [13]
  Activity: 264 min⁻¹
Cavia porcellus [14]
  Time: 30.8 ms
Cavia porcellus [15]
  Time: 124 ms
[16]
  Ki: 0.019 µM
Cavia porcellus [17]
  Activity: 271 min⁻¹
Cavia porcellus [18]
  Time: 63.8 ms
Cytochrome P450 3A4
  IC50: 10 µM
Cavia porcellus [19]
  Time: 126.8 ms
[20]
  Kp at 0.5 h: 2.44
Cavia porcellus [21]
  Time: 231.2 ms
[22]
  Kp at 1 h: 2.13
Cytochrome P450 2C19
  IC50: > 100 µM
Rattus norvegicus
  minimal effective dose: 1 mg/kg
Cavia porcellus [23]
  Time: 63.8 ms
[24]
  concentration at 0.25 h: 0.317 µM
Cavia porcellus [25]
  Time: 265 ms
Cavia porcellus [26]
  Time: 219.8 ms
Cavia porcellus [27]
  Time: 31.6 ms
Cavia porcellus [28]
  Activity: 263 min⁻¹
[29]
  concentration at 1 h: 0.045 µM
Cavia porcellus [30]
  Time: 31.6 ms
Cavia porcellus [31]
  Time: 123.6 ms
Cavia porcellus [32]
  Time: 220 ms
